The values below come from publication PMC12114630 (Pharmaceuticals, 2025).

Structures are written as SMILES. Read-outs that look alike come from different tables or passages of the source.

The target in one assay is T1, D3R (hD3R) (Homo sapiens, UniProt P35462).
T1 construct: gene DRD3; human cloned receptor stably expressed in HEK293 cells; membranes
The experiment in a line: [3H]N-methylspiperone competition, membranes. The following applies: read-out: pKi / D3R (converted). It counts as binding. The text has this:
[3H]N-methylspiperone competition, membranes on D3R (hD3R)

The target in another assay is T2, D4R (hD4.4R) (Homo sapiens, UniProt P21917).
T2 construct: gene DRD4; human cloned receptor stably expressed in HEK293 cells; membranes
T2 sequence (P21917 1-419): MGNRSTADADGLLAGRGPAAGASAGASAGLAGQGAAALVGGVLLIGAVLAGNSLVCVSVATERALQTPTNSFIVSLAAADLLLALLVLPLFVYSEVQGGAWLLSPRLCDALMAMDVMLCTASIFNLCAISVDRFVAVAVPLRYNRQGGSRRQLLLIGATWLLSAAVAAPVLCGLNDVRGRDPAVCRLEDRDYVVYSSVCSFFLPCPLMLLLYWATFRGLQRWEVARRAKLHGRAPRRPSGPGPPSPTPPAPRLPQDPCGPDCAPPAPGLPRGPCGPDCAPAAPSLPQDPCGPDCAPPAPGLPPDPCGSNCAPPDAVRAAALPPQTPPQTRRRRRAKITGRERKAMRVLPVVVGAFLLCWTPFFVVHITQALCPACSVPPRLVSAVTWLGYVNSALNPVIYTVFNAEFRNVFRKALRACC
The experiment in a line: [3H]N-methylspiperone competition, membranes. Format: binding. The following applies: read-out: pKi / D4R (converted). An excerpt:
[3H]N-methylspiperone competition, membranes on D4R (hD4.4R)

Another assay deals with T3, D2R (hD2R) (Homo sapiens, UniProt P14416).
T3 construct: gene DRD2; human cloned receptor stably expressed in HEK293 cells; membranes
The assay is described as follows: [3H]N-methylspiperone competition, membranes. Format: binding. As to conditions: read-out: pKi / D2R (converted). The text has this: [3H]N-methylspiperone competition, membranes on D2R (hD2R)

In assay [1] the target is T4, D4R (BRET assay) (Homo sapiens, UniProt P21917).
T4 construct: gene DRD4; expressed in HEK293T cells for BRET functional assays
T4 sequence (P21917 1-419): T2 sequence (P21917 1-419)
The experiment in a line: BRET Go activation, agonist mode. The following applies: read-out: 16 (converted). Format: cell-based. (Bioluminescence resonance energy transfer reports proximity on the nanometre scale.)

Assay [2] has as its target T4, D4R (BRET assay). The assay is described as follows: BRET Go activation, antagonist mode. Format: cell-based.

T1 sequence (P35462 whole entry): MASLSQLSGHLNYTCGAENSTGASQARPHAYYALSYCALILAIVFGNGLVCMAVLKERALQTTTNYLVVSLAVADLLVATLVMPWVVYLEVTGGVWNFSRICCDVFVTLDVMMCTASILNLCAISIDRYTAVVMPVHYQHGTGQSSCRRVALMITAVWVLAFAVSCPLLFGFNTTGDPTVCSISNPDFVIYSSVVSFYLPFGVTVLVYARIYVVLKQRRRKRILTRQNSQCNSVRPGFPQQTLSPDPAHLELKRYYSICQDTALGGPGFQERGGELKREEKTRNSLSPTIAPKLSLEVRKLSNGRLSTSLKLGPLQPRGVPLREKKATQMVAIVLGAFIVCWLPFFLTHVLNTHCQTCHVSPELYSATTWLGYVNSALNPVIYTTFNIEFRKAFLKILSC
T3 sequence (P14416 whole entry): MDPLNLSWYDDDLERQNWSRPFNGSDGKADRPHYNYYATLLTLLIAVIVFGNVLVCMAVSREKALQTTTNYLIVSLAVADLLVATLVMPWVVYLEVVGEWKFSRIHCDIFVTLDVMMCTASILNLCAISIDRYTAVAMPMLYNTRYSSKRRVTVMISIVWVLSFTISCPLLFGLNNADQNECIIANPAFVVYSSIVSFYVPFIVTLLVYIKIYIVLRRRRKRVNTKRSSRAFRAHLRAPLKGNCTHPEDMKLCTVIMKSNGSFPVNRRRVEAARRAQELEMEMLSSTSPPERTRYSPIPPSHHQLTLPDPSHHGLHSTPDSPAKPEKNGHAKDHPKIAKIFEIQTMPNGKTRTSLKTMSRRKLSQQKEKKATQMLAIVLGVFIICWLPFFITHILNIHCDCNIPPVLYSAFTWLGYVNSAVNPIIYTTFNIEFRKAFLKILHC

As for `CCCCC1CCN(CCN2C(=O)CCc3ccccc32)CC1` [compound 9, 1-(2-(4-Butylpiperidin-1-yl)ethyl)-3,4-dihydroquinolin-2(1H)-one], the Ki at D3R (hD3R) is 13200 nM; on D4R (hD4.4R), 17.4 nM; at D2R (hD2R), 8910 nM.

For `O=C1CCc2ccccc2N1CCCCCN1CCC(Cc2ccccc2)CC1` [compound 14, 1-(5-(4-Benzylpiperidin-1-yl)pentyl)-3,4-dihydroquinolin-2(1H)-one], the Ki is 407 nM at D3R (hD3R), 45.7 nM at D4R (hD4.4R) and 813 nM at D2R (hD2R).

For the compound `O=C1CCc2ccccc2N1CCCCN1CCC(Cc2ccccc2)CC1` [compound 13, 1-(4-(4-Benzylpiperidin-1-yl)butyl)-3,4-dihydroquinolin-2(1H)-one], the figures for the Ki on D3R (hD3R), on D4R (hD4.4R) and at D2R (hD2R) were 302 nM, 22.4 nM and 1070 nM, respectively.

As to `O=C1CCc2ccccc2N1CCC1CCN(Cc2ccccc2)CC1` [compound 17, 1-(2-(1-Benzylpiperidin-4-yl)ethyl)-3,4-dihydroquinolin-2(1H)-one], the values for the Ki on D3R (hD3R), on D4R (hD4.4R) and on D2R (hD2R) were 8130 nM, 302 nM and 12600 nM, respectively.

As to `O=C1CCc2ccccc2N1CC1CCN(Cc2ccccc2)CC1` [compound 18, 1-((1-Benzylpiperidin-4-yl)methyl)-3,4-dihydroquinolin-2(1H)-one], the Ki is 7590 nM on D3R (hD3R), 275 nM at D4R (hD4.4R) and 13200 nM on D2R (hD2R).

As for `CCCCN1CCC(CCCN2C(=O)CCc3ccccc32)CC1` [compound 15, 1-(3-(1-Butylpiperidin-4-yl)propyl)-3,4-dihydroquinolin-2(1H)-one], the Ki is 1070 nM on D3R (hD3R), 759 nM at D4R (hD4.4R) and 10200 nM on D2R (hD2R).

As to `O=C1CCc2ccccc2N1CCCC1CCN(Cc2ccccc2)CC1` [compound 16, 1-(3-(1-Benzylpiperidin-4-yl)propyl)-3,4-dihydroquinolin-2(1H)-one], the Ki on D3R (hD3R) was 2000 nM; at D4R (hD4.4R), 1.62 nM; at D2R (hD2R), 3630 nM. Moreover, the EC50 on D4R (BRET assay) [1] is 4.37 nM. In addition, the IC50 on D4R (BRET assay) [2] (read-out: 16 (converted)) was 61.7 nM.

In the case of `CCCCC1CCN(CCCCCN2C(=O)CCc3ccccc32)CC1` [compound 11, 1-(5-(4-Butylpiperidin-1-yl)pentyl)-3,4-dihydroquinolin-2(1H)-one], the Ki is 288 nM at D3R (hD3R), 52.5 nM on D4R (hD4.4R) and 302 nM at D2R (hD2R).

As for `O=C1CCc2ccccc2N1CCCN1CC=C(c2ccccc2)CC1` [compound 19, 1-(3-(4-Phenyl-3,6-dihydropyridin-1(2H)-yl)propyl)-3,4-dihydroquinolin-2(1H)-one], the Ki on D3R (hD3R) was 245 nM; at D4R (hD4.4R), 1.51 nM; at D2R (hD2R) it was 575 nM.

`O=C1CCc2ccccc2N1CCN1CCC(Cc2ccccc2)CC1` [compound 12, 1-(2-(4-Benzylpiperidin-1-yl)ethyl)-3,4-dihydroquinolin-2(1H)-one]: the Ki at D3R (hD3R) was 933 nM; on D4R (hD4.4R), 0.661 nM; on D2R (hD2R), 661 nM. Moreover, on D4R (BRET assay) [2] (read-out: 12 (converted)), the IC50 is 214 nM.

On to `CCCCC1CCN(CCCCN2C(=O)CCc3ccccc32)CC1` [compound 10, 1-(4-(4-Butylpiperidin-1-yl)butyl)-3,4-dihydroquinolin-2(1H)-one], for which the Ki on D3R (hD3R) is 309 nM; at D4R (hD4.4R), 23.4 nM; at D2R (hD2R), 1350 nM.

`O=C1CCc2ccccc2N1CCCN1CCc2ccccc2C1` [compound 20, 1-(3-(3,4-Dihydroisoquinolin-2(1H)-yl)propyl)-3,4-dihydroquinolin-2(1H)-one]: the Ki is 229 nM at D3R (hD3R), 28.2 nM at D4R (hD4.4R) and 447 nM at D2R (hD2R).
